Assay results published in publication PMC10218596 (International Journal of Molecular Sciences, 2023).

Tests used:
Type in all cases: cell-based
h[α6V32L, K61R/α3]β4 = biological target: T1, h[α6V32L, K61R/α3]β4 (Homo sapiens, UniProt P30926+P32297+Q15825, K94R/V65L); conditions: ACh on h[α6V32L
T1 construct: formed by splicing the N-terminal extracellular domain of the α6 subunit with the α3 subunit; fusion partner: remainder of the human α3 subunit (CHRNA3); expressed in transfected cells; host or cells: Xenopus laevis oocytes injected with cRNA

h[α6Q14R/α3]β4 = biological target: T2, h[α6Q14R/α3]β4 (Homo sapiens, UniProt P30926+P32297+Q15825, Q47R); conditions: ACh on h[α6Q14R/α3]β4
T2 construct: formed by splicing the N-terminal extracellular domain of the α6 subunit with the α3 subunit; human nAChR α3 subunit (CHRNA3); expressed in transfected cells; host or cells: Xenopus laevis oocytes injected with cRNA (plasmids from the University of Utah)

h[α6K61R/α3]β4 = biological target: T3, h[α6K61R/α3]β4 (Homo sapiens, UniProt P30926+P32297+Q15825, K94R); assay: Electrophysiological assay, ACh concentration-response (Xenopus oocytes); conditions: ACh on h[α6K61R/α3]β4
T3 construct: formed by splicing the N-terminal extracellular domain of the α6 subunit with the α3 subunit; human nAChR α3 subunit (CHRNA3); expressed in transfected cells; host or cells: Xenopus laevis oocytes injected with cRNA (plasmids from the University of Utah)

h[α6N110D/α3]β4 = biological target: T4, h[α6N110D/α3]β4 (Homo sapiens, UniProt P30926+P32297+Q15825, N143D); assay: as above; conditions: ACh on h[α6N110D/α3]β4
T4 construct: formed by splicing the N-terminal extracellular domain of the α6 subunit with the α3 subunit; fusion partner: remainder of the human α3 subunit (CHRNA3); expressed in transfected cells; host or cells: Xenopus laevis oocytes injected with cRNA

h[α6R63C/α3]β4 = biological target: T5, h[α6R63C/α3]β4 (Homo sapiens, UniProt P30926+P32297+Q15825, R96C); conditions: ACh on h[α6R63C/α3]β4
T5 construct: formed by splicing the N-terminal extracellular domain of the α6 subunit with the α3 subunit; human nAChR α3 subunit (CHRNA3); expressed in transfected cells; host or cells: Xenopus laevis oocytes injected with cRNA (plasmids from the University of Utah)

h[α6K7T/α3]β4 = biological target: T6, h[α6K7T/α3]β4 (Homo sapiens, UniProt P30926+P32297+Q15825, K40T); assay: Electrophysiological assay, ACh concentration-response (Xenopus oocytes); conditions: ACh on h[α6K7T/α3]β4
T6 construct: formed by splicing the N-terminal extracellular domain of the α6 subunit with the α3 subunit; human nAChR α3 subunit (CHRNA3); expressed in transfected cells; host or cells: Xenopus laevis oocytes injected with cRNA (plasmids from the University of Utah)

h[α6I176V/α3]β4 = biological target: T7, h[α6I176V/α3]β4 (Homo sapiens, UniProt P30926+P32297+Q15825, I209V); assay: as above; conditions: ACh on h[α6I176V/α3]β4
T7 construct: formed by splicing the N-terminal extracellular domain of the α6 subunit with the α3 subunit; fusion partner: remainder of the human α3 subunit (CHRNA3); expressed in transfected cells; host or cells: Xenopus laevis oocytes injected with cRNA

h[α6N58K/α3]β4 = biological target: T8, h[α6N58K/α3]β4 (Homo sapiens, UniProt P30926+P32297+Q15825, N91K); assay: as above; conditions: ACh on h[α6N58K/α3]β4
T8 construct: formed by splicing the N-terminal extracellular domain of the α6 subunit with the α3 subunit; human nAChR α3 subunit (CHRNA3); expressed in transfected cells; host or cells: Xenopus laevis oocytes injected with cRNA (plasmids from the University of Utah)

h[α6R3Q/α3]β4 = biological target: T9, h[α6R3Q/α3]β4 (Homo sapiens, UniProt P30926+P32297+Q15825, R36Q); assay: as above; conditions: ACh on h[α6R3Q/α3]β4
T9 construct: formed by splicing the N-terminal extracellular domain of the α6 subunit with the α3 subunit; human nAChR α3 subunit (CHRNA3); expressed in transfected cells; host or cells: Xenopus laevis oocytes injected with cRNA (plasmids from the University of Utah)

h[α6M67T/α3]β4 = biological target: T10, h[α6M67T/α3]β4 (Homo sapiens, UniProt P30926+P32297+Q15825, M100T); conditions: ACh on h[α6M67T/α3]β4
T10 construct: formed by splicing the N-terminal extracellular domain of the α6 subunit with the α3 subunit; fusion partner: remainder of the human α3 subunit (CHRNA3); expressed in transfected cells; host or cells: Xenopus laevis oocytes injected with cRNA

h[α6S10A/α3]β4 = biological target: T11, h[α6S10A/α3]β4 (Homo sapiens, UniProt P30926+P32297+Q15825, S43A); conditions: ACh on h[α6S10A/α3]β4
T11 construct: formed by splicing the N-terminal extracellular domain of the α6 subunit with the α3 subunit; human nAChR α3 subunit (CHRNA3); expressed in transfected cells; host or cells: Xenopus laevis oocytes injected with cRNA (plasmids from the University of Utah)

h[α6K81N/α3]β4 = biological target: T12, h[α6K81N/α3]β4 (Homo sapiens, UniProt P30926+P32297+Q15825, K114N); conditions: ACh on h[α6K81N/α3]β4
T12 construct: formed by splicing the N-terminal extracellular domain of the α6 subunit with the α3 subunit; fusion partner: remainder of the human α3 subunit (CHRNA3); expressed in transfected cells; host or cells: Xenopus laevis oocytes injected with cRNA

h[α6V32L/α3]β4 = biological target: T13, h[α6V32L/α3]β4 (Homo sapiens, UniProt P30926+P32297+Q15825, V65L); conditions: ACh on h[α6V32L/α3]β4
T13 construct: formed by splicing the N-terminal extracellular domain of the α6 subunit with the α3 subunit; human nAChR α3 subunit (CHRNA3); expressed in transfected cells; host or cells: Xenopus laevis oocytes injected with cRNA (plasmids from the University of Utah)

[1] = biological target: T14, h[α6V32L, K61R/α3]β4L107V,V115I (Homo sapiens, UniProt P30926+P32297+Q15825, K94R/L133V/V141I/V65L); conditions: ACh on h[α6V32L
T14 construct: formed by splicing the N-terminal extracellular domain of the α6 subunit with the α3 subunit; fusion partner: remainder of the human α3 subunit (CHRNA3); expressed in transfected cells; host or cells: Xenopus laevis oocytes injected with cRNA

h[α6M112V/α3]β4 = biological target: T15, h[α6M112V/α3]β4 (Homo sapiens, UniProt P30926+P32297+Q15825, M145V); conditions: ACh on h[α6M112V/α3]β4
T15 construct: formed by splicing the N-terminal extracellular domain of the α6 subunit with the α3 subunit; fusion partner: remainder of the human α3 subunit (CHRNA3); expressed in transfected cells; host or cells: Xenopus laevis oocytes injected with cRNA
T15 sequence (Q15825+P32297 fused with the stated changes): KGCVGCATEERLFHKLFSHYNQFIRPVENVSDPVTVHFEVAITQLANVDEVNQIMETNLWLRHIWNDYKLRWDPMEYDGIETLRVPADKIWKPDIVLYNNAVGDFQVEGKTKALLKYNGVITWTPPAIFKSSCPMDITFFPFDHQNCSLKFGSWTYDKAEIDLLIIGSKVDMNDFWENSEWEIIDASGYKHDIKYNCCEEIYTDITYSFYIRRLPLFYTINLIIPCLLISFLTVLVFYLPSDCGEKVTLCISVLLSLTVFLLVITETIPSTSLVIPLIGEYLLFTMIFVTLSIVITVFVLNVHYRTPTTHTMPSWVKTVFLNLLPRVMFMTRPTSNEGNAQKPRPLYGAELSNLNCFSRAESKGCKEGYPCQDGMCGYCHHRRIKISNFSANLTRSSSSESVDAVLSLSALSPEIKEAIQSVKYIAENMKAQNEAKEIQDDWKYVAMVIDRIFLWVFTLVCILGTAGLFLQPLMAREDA
T15 sequence (P30926 22-498): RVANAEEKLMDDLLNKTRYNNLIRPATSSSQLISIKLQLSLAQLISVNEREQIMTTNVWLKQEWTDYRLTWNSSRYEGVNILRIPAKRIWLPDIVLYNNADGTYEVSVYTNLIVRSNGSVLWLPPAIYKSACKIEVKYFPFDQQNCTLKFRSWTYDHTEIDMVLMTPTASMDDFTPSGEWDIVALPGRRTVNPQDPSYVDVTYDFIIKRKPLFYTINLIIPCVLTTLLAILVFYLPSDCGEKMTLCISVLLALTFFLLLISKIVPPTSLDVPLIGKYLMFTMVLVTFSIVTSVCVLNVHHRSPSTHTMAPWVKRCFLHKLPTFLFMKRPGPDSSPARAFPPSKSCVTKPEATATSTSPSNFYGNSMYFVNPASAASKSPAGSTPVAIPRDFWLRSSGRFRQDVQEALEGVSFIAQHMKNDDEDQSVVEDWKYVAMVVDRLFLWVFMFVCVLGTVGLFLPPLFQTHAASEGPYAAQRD

T14 sequence (Q15825+P32297 fused with the stated changes): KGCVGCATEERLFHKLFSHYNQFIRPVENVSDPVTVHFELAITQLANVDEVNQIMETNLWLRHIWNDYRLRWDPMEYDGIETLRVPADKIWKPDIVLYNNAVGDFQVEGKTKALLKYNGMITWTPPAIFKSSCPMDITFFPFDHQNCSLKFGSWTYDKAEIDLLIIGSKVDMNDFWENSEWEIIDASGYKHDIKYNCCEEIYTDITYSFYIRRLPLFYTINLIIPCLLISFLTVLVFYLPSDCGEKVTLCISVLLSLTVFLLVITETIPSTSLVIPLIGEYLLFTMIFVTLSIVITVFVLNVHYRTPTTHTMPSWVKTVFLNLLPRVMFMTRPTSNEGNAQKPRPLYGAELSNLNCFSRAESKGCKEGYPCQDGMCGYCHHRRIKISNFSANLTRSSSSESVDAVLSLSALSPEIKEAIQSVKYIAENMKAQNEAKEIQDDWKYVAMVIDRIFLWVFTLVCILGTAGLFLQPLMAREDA
T14 sequence (P30926 22-498 L133V/V141I): as the sequence (P30926 22-498) above, with L112V, V120I counted along it
T1 sequence (P30926 22-498): as the sequence (P30926 22-498) above
T7 sequence (Q15825+P32297 fused with the stated changes): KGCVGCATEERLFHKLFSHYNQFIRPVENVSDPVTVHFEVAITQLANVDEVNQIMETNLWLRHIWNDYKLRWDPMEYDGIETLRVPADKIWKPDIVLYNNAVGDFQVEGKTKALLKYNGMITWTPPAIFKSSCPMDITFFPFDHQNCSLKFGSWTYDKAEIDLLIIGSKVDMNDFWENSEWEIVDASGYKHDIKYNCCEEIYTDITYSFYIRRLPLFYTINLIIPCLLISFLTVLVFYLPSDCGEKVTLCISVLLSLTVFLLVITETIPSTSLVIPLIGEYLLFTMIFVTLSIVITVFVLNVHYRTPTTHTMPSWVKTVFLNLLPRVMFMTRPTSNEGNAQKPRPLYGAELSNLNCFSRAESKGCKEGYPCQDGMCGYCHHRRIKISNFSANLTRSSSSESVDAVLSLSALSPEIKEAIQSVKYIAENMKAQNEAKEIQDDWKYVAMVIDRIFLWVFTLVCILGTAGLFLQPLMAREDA
T7 sequence (P30926 22-498): as the sequence (P30926 22-498) above
T11 sequence (Q15825+P32297 fused with the stated changes): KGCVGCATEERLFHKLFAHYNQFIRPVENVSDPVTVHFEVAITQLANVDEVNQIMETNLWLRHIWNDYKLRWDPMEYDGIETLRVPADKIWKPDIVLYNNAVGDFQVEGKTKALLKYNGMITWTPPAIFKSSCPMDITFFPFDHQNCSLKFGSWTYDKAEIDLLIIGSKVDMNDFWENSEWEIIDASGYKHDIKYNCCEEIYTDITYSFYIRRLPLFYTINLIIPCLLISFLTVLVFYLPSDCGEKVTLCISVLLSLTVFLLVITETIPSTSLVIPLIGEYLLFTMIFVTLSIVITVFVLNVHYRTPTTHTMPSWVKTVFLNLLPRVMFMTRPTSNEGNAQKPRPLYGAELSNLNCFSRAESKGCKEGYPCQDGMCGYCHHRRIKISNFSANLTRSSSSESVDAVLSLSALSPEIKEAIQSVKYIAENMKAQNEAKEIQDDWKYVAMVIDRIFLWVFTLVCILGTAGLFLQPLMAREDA
T11 sequence (P30926 22-498): as the sequence (P30926 22-498) above

SMILES: CC(=O)OCC[N+](C)(C)C [ACh, acetylcholine chloride]
- Hill Slope (h[α6V32L, K61R/α3]β4): 1.2 (1.1–1.3)
- Hill Slope (h[α6Q14R/α3]β4): 1.4 (1.2–1.6)
- Hill Slope (h[α6K61R/α3]β4): 1.4 (1.2–1.7)
- Hill Slope (h[α6N110D/α3]β4): 1.2 (0.9–1.6)
- Hill Slope (h[α6R63C/α3]β4): 1.5 (1.2–1.8)
- Hill Slope (h[α6K7T/α3]β4): 1.5 (1.1–1.9)
- Hill Slope (h[α6I176V/α3]β4): 1.7 (1.4–2.1)
- Hill Slope (h[α6N58K/α3]β4): 1.4 (1.2–1.7)
- Hill Slope (h[α6R3Q/α3]β4): 1.4 (1.2–1.8)
- Hill Slope (h[α6M67T/α3]β4): 1.4 (0.9–2.2)
- Hill Slope (h[α6S10A/α3]β4): 1.6 (1.2–2.3)
- Hill Slope (h[α6K81N/α3]β4): 1.4 (1.3–1.7)
- Hill Slope (h[α6V32L/α3]β4): 1.5 (1.3–1.9)
- Hill Slope [1]: 1.2 (1.0–1.5)
- Hill Slope (h[α6M112V/α3]β4): 1.4 (1.1–1.8)
